Test results reported in the Kinase Knowledgebase extract (Sharma et al. 2016).

What follows are molecules tested against EGFR (UniProt P00533). Conditions: concentration not given here.
EGFR, sequence (P00533 whole entry, looked up): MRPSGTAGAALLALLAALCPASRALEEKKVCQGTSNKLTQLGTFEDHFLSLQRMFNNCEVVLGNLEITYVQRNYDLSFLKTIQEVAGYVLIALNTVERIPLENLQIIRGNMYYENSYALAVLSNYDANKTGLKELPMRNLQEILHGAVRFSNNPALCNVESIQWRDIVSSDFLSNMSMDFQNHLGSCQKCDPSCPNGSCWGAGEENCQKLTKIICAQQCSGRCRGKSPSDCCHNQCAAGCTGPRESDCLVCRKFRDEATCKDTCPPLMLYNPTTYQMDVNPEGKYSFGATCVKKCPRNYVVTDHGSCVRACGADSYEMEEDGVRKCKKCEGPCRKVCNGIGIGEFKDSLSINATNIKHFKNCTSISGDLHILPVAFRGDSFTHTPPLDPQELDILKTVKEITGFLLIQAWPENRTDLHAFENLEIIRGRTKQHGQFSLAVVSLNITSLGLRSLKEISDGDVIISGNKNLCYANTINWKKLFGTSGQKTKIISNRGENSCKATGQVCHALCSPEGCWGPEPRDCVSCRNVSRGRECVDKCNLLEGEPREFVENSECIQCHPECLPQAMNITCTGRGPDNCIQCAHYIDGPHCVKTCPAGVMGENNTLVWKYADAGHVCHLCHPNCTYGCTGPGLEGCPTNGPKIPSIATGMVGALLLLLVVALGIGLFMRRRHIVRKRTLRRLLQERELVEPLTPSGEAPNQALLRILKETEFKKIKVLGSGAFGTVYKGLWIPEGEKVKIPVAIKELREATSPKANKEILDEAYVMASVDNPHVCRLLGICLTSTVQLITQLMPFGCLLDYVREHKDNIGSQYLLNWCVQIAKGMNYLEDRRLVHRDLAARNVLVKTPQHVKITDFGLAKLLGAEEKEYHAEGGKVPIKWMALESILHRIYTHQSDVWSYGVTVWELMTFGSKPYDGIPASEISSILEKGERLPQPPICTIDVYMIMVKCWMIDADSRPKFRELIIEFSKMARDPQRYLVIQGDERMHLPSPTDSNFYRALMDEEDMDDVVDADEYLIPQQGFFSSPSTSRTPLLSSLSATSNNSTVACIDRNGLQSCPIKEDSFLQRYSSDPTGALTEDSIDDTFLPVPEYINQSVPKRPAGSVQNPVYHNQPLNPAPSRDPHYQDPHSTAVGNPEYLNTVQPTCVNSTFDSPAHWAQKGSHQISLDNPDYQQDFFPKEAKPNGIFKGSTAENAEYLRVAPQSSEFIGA

SMILES | inhibition [%]
COc1cc(N)c(C(=O)Nc2cccc(Br)c2)c(OC)c1OC | < 50
COc1cc(N)c(C(=N)Nc2ccc(F)c(Cl)c2)cc1OC | < 50
COc1cc2ncnc(Nc3cccc(Cl)c3)c2cc1OC | 10

Each molecule was assayed against EGFR (human) (UniProt P00533). Conditions: a431.
EGFR (human), sequence (P00533 whole entry, looked up): as above

SMILES | IC50 [µM]
COc1cc(N)c(C(=O)NC2CCCCC2)cc1OC | > 1000
COc1cc(N)c(C(=O)NC(C)c2ccccc2)cc1OC (stereo unspecified) | > 1000
COc1cc(N)c(C(=O)Nc2ccccn2)cc1OC | > 1000
COc1cc(N)c(C(=O)Nc2cccc(Br)c2)c(OC)c1OC | 920
COc1cc2c(cc1OC)C(Nc1cccc(Cl)c1)=NC(C)(C)N2 | 200
COc1cccc(NC(=O)c2cc(OC)c(OC)cc2N)c1 | 200
COc1cc(N)c(C(=N)Nc2ccc(F)c(Cl)c2)cc1OC | 200
COc1cc2c(cc1OC)C(Nc1ccc(F)c(Cl)c1)=NC(C)(C)N2 | 90
COc1cc(N)c(C(=O)Nc2ccc(F)c(Cl)c2)cc1OC | > 1000
COc1cccc(NC(=N)c2cc(OC)c(OC)cc2N)c1 | 340
COc1cc(N)c(C(=O)Nc2cccnc2)cc1OC | > 1000
COc1cc(N)c(C(=O)Nc2cccc(Br)c2)cc1OC | 340
COc1cccc(NC2=NC(C)(C)Nc3cc(OC)c(OC)cc32)c1 | 320
COc1cc(N)c(C(=N)Nc2cccc(Cl)c2)cc1OC | 460
COc1cc(N)c(C(=O)Nc2ccncc2)cc1OC | > 1000
COc1cc(N)c(C(=O)Nc2cccc(C(F)(F)F)c2)cc1OC | 470
COc1cc2c(cc1OC)C(Nc1cccc(Br)c1)=NC(C)(C)N2 | 130
COc1cc(N)c(C(=N)Nc2cccc(Br)c2)cc1OC | 300
